Several values for one entry are separate records, joined by “and”; a condition that tells them apart may be missing. Equal entries are not always repeated. Entries after “also recorded” stand apart in the source; their conditions may differ.
Columns and labels:
miR-21 = miR-21 luciferase sensor assay in Hela cells; assay type: cell-based
[1] = system: model of ischemia reperfusion injury (IRI); test: Unilateral ischemia reperfusion injury (IRI) model: kidney collagen 1A1 and collagen 3A1 expression; assay type: in vivo, mouse; conditions: for Collagen 3A1 (Normalized Expression) Mean / Collagen 1A1 (Normalized Expression) Mean: group mean; for Collagen 1A1 (Normalized Expression) / Collagen 3A1 (Normalized Expression): individual animals
Protocol: A model of ischemia reperfusion injury (IRI) is created in the mouse through unilateral or bilateral clamping of kidney arteries, which leads to tubule damage, inflammation, and fibrosis. Kidney dysfunction can occur either early (<5 days) or late (>7 days) in this model, with the early time points useful to test candidate agents for the treatment of acute kidney injury, and the later time points useful to model chronic fibrosis.
Anti-miR-21 compounds were tested in the unilateral IRI model. Unilateral IRI was induced for a period of 30 minutes. Treatment groups were as follows: sham IRI procedure; IRI with PBS administered subcutaneously; IRI with anti-miR-21 compound 25070 administered intraperitoneally at a dose of 20 mg/kg; the 2′-fluoro/2′-MOE modified anti-miR-21 25919 administered intraperitoneally at a dose of 20 mg/kg; and a 2′-fluoro/2′ modified mismatch anti-miR-21 (having three mismatches to the sequence of miR-21) 25319 administered intraperitoneally at a dose of 20 mg/kg. PBS or anti-miR compound was administered on days 5, 6, and 7 following IRI, and animals were sacrificed 14 days after IRI. As anti-miR compound is administered 5 days following the injury to the kidney, or later, when fibrosis has already occurred to some extent, this treatment regimen is considered a therapeutic regimen, rather than a prophylactic regimen.
Kidney tissue was collected for analysis of collagen 1A1 and collagen 3A1 expression (shown in Table 0), and collagen area fraction (shown in Table P).
A similar study was performed with the same treatment groups and additional days of treatment. In this study, treatments were administered intraperitoneally at days 5, 6, 7, 14, and 21 following the IRI procedure Animals were sacrificed on Day 27, and kidney tissue was collected for analysis of collagen 1A1 and collagen 3A1 expression, as well as collagen area fraction.
In order to assess the flexibility of administration of the anti-miR-21 compound 25070, the activity of the compound in the 14 day study above, where anti-miR-21 was administered at […] following the IRI procedure, to a different 14 day study where anti-miR-21 was administered intraperitoneally at days 3, 5, and 7 following the IRI procedure.

[2] = 4 nM oligonucleotide, Hela cells
[3] = 20 nM oligonucleotide, Hela cells
[4] = 100 nM oligonucleotide, Hela cells
[5] = 500 nM oligonucleotide, Hela cells, two experimental replicates
[6] = .16 nM oligonucleotide, Hela cells
[7] = .8 nM oligonucleotide, Hela cells
[8] = Table O, unilateral IRI, 20 mg/kg intraperitoneally on days 5, 6, 7, day 14, IRI-PBS mean 63.9
[9] = Table O, unilateral IRI, 20 mg/kg intraperitoneally on days 5, 6, 7, day 14, IRI-PBS mean 85.1
[10] = Table O, unilateral IRI 30 minutes, 20 mg/kg intraperitoneally on days 5, 6, 7 (therapeutic), sacrifice 14 days after IRI, 20 mg/kg
[11] = IRI mouse, 14 day study, dosing Day 5, 6, 7, relative to sham
[12] = IRI mouse, 14 day study, intraperitoneal dosing Day 3, 5, 7, relative to sham
[13] = unilateral IRI mouse, 20 mg/kg intraperitoneally on days 5, 6, 7, 14, and 21, kidney, sacrificed Day 27
[14] = unilateral IRI mouse, 20 mg/kg intraperitoneally on days 5, 6, 7, 14, and 21, kidney, sacrificed Day 27, 20 mg/kg

Row | Sequence | luciferase value normalized to beta-galactosidase activity (miR-21; [2]) | luciferase value normalized to beta-galactosidase activity (miR-21; [3]) | luciferase value normalized to beta-galactosidase activity (miR-21; [4]) | luciferase value normalized to beta-galactosidase activity (miR-21; [5]) | luciferase value normalized to beta-galactosidase activity (miR-21; [6]) | luciferase value normalized to beta-galactosidase activity (miR-21; [7]) | Collagen 3A1 (Normalized Expression) Mean [1, 8] | Collagen 1A1 (Normalized Expression) Mean [1, 9] | Collagen 1A1 (Normalized Expression) [1, 10] | Collagen 3A1 (Normalized Expression) [1, 10] | Collagen 1A1 (Normalized Expression) Mean [1, 13] | Collagen 3A1 (Normalized Expression) Mean [1, 13] | Collagen 1A1 (Normalized Expression) [1, 14] | Collagen 3A1 (Normalized Expression) [1, 14] | other results
1 | AECSATCSAGTCSTGAUSAAGCSTAE (ACATCAGTCTGATAAGCTA; modified nucleosides, phosphorothioate linkages, chemistry not fully specified) [Compound 25070] | 99 | 128 | 132 | 165 | 65 | 87 | 34.2 | 50.2 | 81.7 and 57.4 and 37.9 and 55.3 and 22.3 and 52.4 and 53.0 and 41.5 | 57.8 and 18.1 and 39.3 and 36.0 and 20.6 and 38.6 and 33.4 and 29.7 | 31.4 | 20.8 | 26.4 and 37.4 and 41.9 and 36.8 and 14.1 and 27.7 and 29.4 and 37.6 | 16.4 and 27.0 and 28.5 and 19.6 and 11.3 and 19.3 and 21.4 and 23.1 | inhibition of miR-21 activity in the luciferase assay (in words) (miR-21; Hela cells): inhibition of miR-21 in a dose-dependent manner; also recorded: potent inhibitor of miR-21 activity; fold change in luciferase value relative to the mock treatment (miR-21; concentration of anti-miR compound 0.2 (unit not given)): 1.04 fold change; fold change in luciferase value relative to the mock treatment (miR-21; concentration of anti-miR compound 0.6 (unit not given)): 1.01 fold change; fold change in luciferase value relative to the mock treatment (miR-21; concentration of anti-miR compound 1.9 (unit not given)): 1.14 fold change; fold change in luciferase value relative to the mock treatment (miR-21; concentration of anti-miR compound 5.6 (unit not given)): 6.22 fold change; fold change in luciferase value relative to the mock treatment (miR-21; concentration of anti-miR compound 16.7 (unit not given)): 11.28 fold change; fold change in luciferase value relative to the mock treatment (miR-21; concentration of anti-miR compound 50.0 (unit not given)): 11.00 fold change; reduction of collagen expression (collagen 1A1 or collagen 3A1, significance) ([1]; IRI, 14 day studies, either dosing schedule (days 5, 6, 7 or days 3, 5, 7)): statistically significant reduction of collagen expression with either dosing schedule; Collagen 1A1 (Normalized Expression) Mean [1, 11]: 24.5; Collagen 3A1 (Normalized Expression) Mean [1, 11]: 26.2; Collagen 1A1 (Normalized Expression) Mean [1, 12]: 27.2; Collagen 3A1 (Normalized Expression) Mean [1, 12]: 27.9; Collagen 1A1 (Normalized Expression) [1, 11]: 21.7 and 22.8 and 15.8 and 27.6 and 27.1 and 29.3 and 10.8 and 21.5 and 29.9 and 35.0 and 28.3 and 24.2; Collagen 3A1 (Normalized Expression) [1, 11]: 24.9 and 26.3 and 13.6 and 25.4 and 32.7 and 29.9 and 9.7 and 22.2 and 33.2 and 35.4 and 32.3 and 28.9; Collagen 1A1 (Normalized Expression) [1, 12]: 37.5 and 21.9 and 35.3 and 26.0 and 24.9 and 16.8 and 30.8 and 34.3 and 36.8 and 9.4 and 28.0 and 24.6; Collagen 3A1 (Normalized Expression) [1, 12]: 35.3 and 23.6 and 32.1 and 25.1 and 31.3 and 18.6 and 30.3 and 37.6 and 40.0 and 9.5 and 23.2 and 28.7
2 | UECEAFAFCFAFUFCFAFGFUFCEUEGEAFUFAFAFGFCFUEAE (antisense TCAACATCAGTCTGATAAGCTA; listed as DNA, chemistry not fully specified) [Compound 25919, reference compound] | 84 | 114 | 171 | 202 | 40 | 53 | 59.9 | 72.0 | 108.7 and 103.9 and 29.5 and 95.8 and 35.5 and 42.2 and 64.1 and 96.4 | 87.5 and 72.3 and 14.3 and 104.4 and 27.1 and 34.9 and 56.1 and 82.8 | 48.3 | 34.9 | 75.5 and 50.4 and 49.2 and 43.2 and 41.7 and 53.6 and 44.8 and 28.0 | 40.2 and 43.1 and 34.5 and 35.7 and 41.1 and 36.9 and 24.5 and 22.9 | –
